Data published in US7763596B2, “Selective glucocorticoid receptor agonists” (The University of Manchester, priority 2000, dated 2010).

Experiments:
GFP tagged GR = target: T1, GFP tagged GR (Homo sapiens, UniProt P04150); assay: Nuclear translocation using GFP tagged GR and fluorescent microscopy; assay type: cell-based; details: COS 7 cells, 100 nM, 3 hours
T1 construct: expressed in transfected cells; host or cells: COS 7
T1 sequence (P04150 1-777): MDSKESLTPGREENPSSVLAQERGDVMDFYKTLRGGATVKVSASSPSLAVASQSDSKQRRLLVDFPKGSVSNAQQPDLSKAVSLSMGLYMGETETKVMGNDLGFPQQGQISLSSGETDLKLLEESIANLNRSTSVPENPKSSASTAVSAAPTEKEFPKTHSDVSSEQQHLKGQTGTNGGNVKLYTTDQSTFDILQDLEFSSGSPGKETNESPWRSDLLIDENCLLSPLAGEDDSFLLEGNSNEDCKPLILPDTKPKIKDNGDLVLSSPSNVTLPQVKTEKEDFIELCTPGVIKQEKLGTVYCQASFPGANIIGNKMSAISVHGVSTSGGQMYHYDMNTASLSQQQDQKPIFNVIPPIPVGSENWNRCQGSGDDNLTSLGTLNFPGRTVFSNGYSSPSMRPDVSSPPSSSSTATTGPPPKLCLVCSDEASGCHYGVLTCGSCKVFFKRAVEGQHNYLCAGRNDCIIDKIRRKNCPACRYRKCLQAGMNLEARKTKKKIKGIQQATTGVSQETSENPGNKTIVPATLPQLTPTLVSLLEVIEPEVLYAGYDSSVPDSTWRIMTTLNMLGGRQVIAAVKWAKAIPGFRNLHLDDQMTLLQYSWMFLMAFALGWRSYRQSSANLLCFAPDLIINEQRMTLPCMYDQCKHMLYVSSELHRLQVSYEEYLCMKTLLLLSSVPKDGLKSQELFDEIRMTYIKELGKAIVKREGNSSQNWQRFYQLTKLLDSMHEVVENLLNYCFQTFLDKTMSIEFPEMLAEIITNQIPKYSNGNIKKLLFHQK
Source text: The un-liganded GR is present in the cytoplasm of cells in association with heat shock proteins (HSPs). The binding of an agonist ligand to the GR causes dissociation from the HSPs and translocation to the nucleus. A type I antagonist ligand can bind to the GR but cannot translocate to the nucleus. A type II antagonist ligand can bind to the GR, translocate to the nucleus and bind to DNA but cannot activate gene transcription. Therefore, the ability of a putative ligand to translocate the GR helps to determine its status as an agonist or antagonist. COS 7 cells were transfected with 5 μg of a green fluorescent protein (GFP) tagged GR expression vector. After transfection, these cells were split into 6 well plates with sterile microscope cover slips placed at the bottom of each well. The cells were allowed to recover for 18 hours and then the medium was removed, the cells were washed three times with sterile phosphate buffered saline (PBS) and new medium was added containing charcoal stripped FCS in place of normal FCS. The cells were incubated for 18 hours and then the steroids of FIGS. 1 and 2A were added to make a final concentration of 100 nM. The cells were incubated for a further 3 hours and then the medium was aspirated and the cells were fixed to the glass coverslips by adding ice cold methanol and incubating at −20° C. for 30 mins. The coverslips with the transfected cells fixed to them were mounted on slides and the cellular localisation of the GFP tagged GR was analysed by fluorescent microscopy using an Axioplan 2 microscope (Zeiss, Oberkochen, Germany) and KS300 v3.0 analysis software (Zeiss).

endogenous GR = target: T2, endogenous GR (Homo sapiens, UniProt P04150); assay: Transrepression assay using endogenous GR in the A549 lung epithelial cell line (TNF, NRE luciferase); assay type: cell-based; details: compound G at 1, 10, 100 and 500 nM
T2 construct: This cell line contains functional endogenous GR; endogenous in cells; host or cells: A549
T2 sequence (P04150 1-777): T1 sequence (P04150 1-777)
Source text: The A549 cell line (ECACC:86012804) is derived from the human lung epithelial cells from a carcinoma. This cell line contains functional endogenous GR and is stimulated by Tumour Necrosis Factor (TNF) to produce IL-8.
In this assay TNF was used to stimulate NFkB activity in a cell line that expressed endogenous GR. The ability of NFkB to activate an NRE “driving” a luciferase reporter gene could then be repressed by GR in a ligand dependent manner and, therefore, used to measure transrepression.
COS7 cells were transfected with 3 μg NRE-Luc per 10 cm tissue culture dish. The cells were plated out in to 24 well plates after transfection and left for 18 hours to recover before the steroids of FIGS. 1 and 2 were added. Next TNF was added to the samples after 3 hours incubation with the steroids and after another 15 hours the cells were lysed and a luciferase assay was performed.

CEM-C7A cells = assay: Apoptosis assay in CEM-C7A cells (viable cell count, MTS); assay type: cell-based, human; details: CEM C7A cells, 100 nM, three day incubation
Experimental: The CEM-C7A cell line is a steroid sensitive clone of the CCRF-CEM cell line (ECACC 85112105). This is a T lymphoblastoid cell line with functional endogenous GR.
Apoptosis (programmed cell death) is mediated by a protein called Bax the transcription of which is primarily controlled by the GR in a ligand dependant manner. To measure the ability of a GR ligand to effect apoptosis a suitable cell line was incubated with ligand and a viable cell count was performed after three days.
CEM-C7A cells were plated out on to a 96well plate at 5×10^5/well. The steroids of FIGS. 1 and 2A were added immediately to generate a final concentration of 100 nM. After a three day incubation the live cell number in each well was assessed using Celltiter 96 Aqueous Non-Radioactive Cell Proliferation Assay (Promega). This assay is a calorimetric method for determining the number of viable cells in proliferation or chemosensitivity assays.
Briefly, the assay is composed of solutions of a novel tetrazolium compound (3-(4,5-dimethylthiazol-2-yl)-5-(3-carboxymethoxyphenyl)-2-(4-sulfophenyl)-2H-tetrazolium, MTS) and an electron coupling reagent (phenazine methosulfate; PMS). MTS is bioreduced by cells into a formazan product that is soluble in tissue culture medium. The absorbance of the formazan at 490 nm can be measured directly from 96 well assay plates without additional processing. The conversion of MTS into aqueous, soluble formazan is accomplished by dehydrogenase enzymes found in metabolically active cells. The quantity of formazan product as measured by the amount of 490 nm absorbance is directly proportional to the number of living cells in culture.

| SMILES | nuclear translocation of the GFP tagged glucocorticoid receptor (GFP tagged GR) | repression of TNF activation of A549 cells (NRE reporter gene) (endogenous GR) | induction of apoptosis (CEM-C7A cells) |
| --- | --- | --- | --- |
| Cc1ccc(NC(=O)C2(O)C(C)CC3C4CCC5=CC(=O)C=CC5(C)C4(F)C(O)CC32C)cc1 (stereo not drawn) [Compound O] | failed to cause translocation |  |  |
| CC1CC2C3CCC4=CC(=O)C=CC4(C)C3(F)C(O)CC2(C)C1(O)C(=O)COC(=O)c1ccc(F)cc1 (stereo not drawn) [Compound D] | caused nuclear localisation | exhibited transrepression |  |
| CC1CC2C3CCC4=CC(=O)C=CC4(C)C3(F)C(O)CC2(C)C12OC(C)(C)OCC2=O (stereo not drawn) [Compound A] | caused nuclear localisation | exhibited transrepression | most potent inducers of apoptosis |
| CC1CC2C3CCC4=CC(=O)C=CC4(C)C3(F)C(O)CC2(C)C1(O)C(=O)NCCC(=O)O (stereo not drawn) [Q] |  |  | not |
| CCCNC(=O)C1(O)C(C)CC2C3CCC4=CC(=O)C=CC4(C)C3(F)C(O)CC21C (stereo not drawn) [Compound G] |  | repressed at least as well as dexamethasone and also had a “left shifted” response with greater maximal repression | apoptosis was induced |
